# Assay results published in patent US20250199004A1, “METHODS OF EVALUATING TREATMENT OUTCOME IN HIGH GRADE SEROUS OVARIAN CANCER” (THE REGENTS OF THE UNIVERSITY OF COLORADO, A BODY CORPORATE, priority 2018, published 2025).
# Key:
# Format in all cases: cell-based, human
# [1] = tested on: TMEFF1 expression in OVCAR4 cells; test: TMEFF1 (CBX2 target gene) expression by qPCR; details: qPCR after treatment of OVCAR4 cells
# Experimental: Ten candidate inhibitors were evaluated based on their ability to inhibit HGSOC cell viability. Dose response assays of all 10 inhibitors were conducted in OVCAR4, PEO1, and COV504 HGSOC cell lines to determine half inhibitory concentration (IC50) (FIG. 12 Panel A). We explored ability of these compounds to downregulate a CBX2 target gene, transmembrane protein with EGF-like and two follistatine-like domains 1 (TMEFF1) (FIG. 12 Panel B).
# RNA was isolated using RNAeasy Plus Mini Kit (Qiagen, Hilden Germany) according to the manufacturer's protocol. NanoDrop spectrophotometry was used to measure concentration of extracted RNA. Luna Universal One-step RT qPCR kit (New England BioLabs, Ipswich, MA) was used on BioRad CFX96 (Bio-Rad, Hercules, CA). HPRT or GAPDH were used as internal control as stated in figure legend.
# CBX2 = CBX2 knockdown confirmed via qPCR and immunoblots; details: shRNA transduced into OVCAR4, PEO1 and OVCAR8 cells; vs shControl
# Text: To further elucidate the role of CBX2 in HGSOC, we evaluated the impact of CBX2 modulation in PEO1, OVCAR4, and OVCAR8 HGSOC cell lines. One of the two independent small hairpin RNAs (shRNA) specific for CBX2 or a control (shControl) were transduced into OVCAR4, PEO1, and OVCAR8 cells. CBX2 knockdown was confirmed via quantitative PCR (qPCR) and immunoblots, with approximately 60% knockdown in the presence of shCBX2 #1 and 30% knockdown in the presence of shCBX2 #2 (FIG. 2A Panels C, D; and FIG. 3A Panels B-D). […] OVCAR4 and PEO1 CBX2 knockdown cells were plated in adherent (2D) conditions and for 96 h gLuc activity was measured every 24 h. […] OVCAR4 and PEO1 CBX2 knockdown cells were plated in forced suspension conditions and gLuc activity was monitored every 24 h for 96 h and cell viability was determined for cells grown in forced suspension. […] Spheroid diameter was measured for at least 50 spheroids in each condition and used as a surrogate for cell number. […]
# Cell lysis was performed using radioimmunoprecipitation assay (RIPA) buffer (150 mM sodium chloride, Triton X-100, 0.5% sodium deoxycholate, 0.1% SDS [sodium dodecyl sulfate], 50 mM Tris, pH 8.0) supplemented with complete EDTA-free protease inhibitor cocktail (Roche), as well as NaF and NaV. Protein was quantified using bicinchoninic acid (BCA) protein assay (Thermo Fisher Scientific, Waltham, MA) and spectrophotometry. […]
# [2] = tested on: aldehyde dehydrogenase (ALDH); test: Aldefluor assay with flow cytometry; details: OVCAR4 cells, adherent and suspended, 7 days; negative control
# Text: The panels of FIG. 9A and FIG. 9B are as follows. Panel A: CBX2-associated genes were cross-referenced with a gene set for stemness. Percentage indicates overlap of stemness gene set with CBX2-associated genes. Panel B: OVCAR4 cells grown in adherent and suspended settings for 7 days. Aldefluor assay and flow cytometry were utilized to determine the percentage of cells that were positive for aldehyde dehydrogenase (ALDH), a marker of stemness. […] Panel C: As above, OVCAR4 cells grown in adherent and suspended settings for 7 days. Bar graph compares the percentage of cells ALDH positive control (+DEAB) to cells without DEAB (experimental) in adherent and suspended settings. Statistical test=two-sided t-test. F Test p=0.1136. Panel D: OVCAR4 cells with shControl, shCBX2 #1 and #2 cultured in suspension over 7 days. Aldefluor assay and flow cytometry again utilized to determine the percentage of cells ALDH positive. Statistical test=two-sided t-test. F-test p=0.83 Panel E: Utilizing the TCGA (HGSOC, Nature, 2011, n=489) dataset, a scatter plot CBX2 expression was correlated to ALDH3A1 expression. Spearman correlation r=0.2123 and p-value<0.0001. Panel F: RT-qPCR of ALDH3A1 in OVCAR4 cells cultured in adherent and suspension conditions with CBX2 knockdown (shCBX2 #1). Statistical test =ANOVA. […]
Compound,TMEFF1 expression [1],CBX2 knockdown (CBX2),further results
CC(=O)Nc1ccc(OC[C@](C)(O)C(=O)Nc2ccc([N+](=O)[O-])c(C(F)(F)F)c2)cc1 [GTX-007],significantly inhibited,–,–
"shCBX2 #1: CBX2-specific short hairpin RNA, GCCAAGGAAGCTCACTGCCAT (SEQ ID NO:19) (expressed or natural sequence; listed as Homo sapiens)",–,approximately 60%,–
Cc1nc2ccc(CN(C)c3ccc(C(=O)N[C@@H](CCC(=O)O)C(=O)O)s3)cc2c(=O)[nH]1 [raltitrexed],significantly inhibited,–,–
CCc1c(C(=O)C(N)=O)c2c(OCC(=O)O)cccc2n1Cc1ccccc1 [LY315920],significantly inhibited,–,–
"CCN(CC)c1ccc(C=O)cc1 [DEAB, Diethylaminobenzaldehyde]",–,–,ALDH activity [2]: prevented the increase
"shCBX2 #2: CBX2-specific short hairpin RNA, ACGGAAAGGAACAGGAAGCAT (SEQ ID NO:20) (expressed or natural sequence; listed as Homo sapiens)",–,~30%,–
